The source of these data is paper PMC5048153 (Scientific Reports, 2016).

Counter-ions that a name gives are not always drawn.

Assay [1] relates to corticosterone-injured PC12 cells. The assay is described as follows: Protective effects on corticosterone-injured PC12 cells (MTT). It is filed as cell-based, rat. Further details: key to PR (protection rate), Table S1: compounds did not shown protection effects on corticosterone-injured PC12 cells. The settings on record: 24 h after treatment; for PR (protection rate), Table S1: 1.25µM; for PR (protection rate): 200 μM corticosterone. The procedure: PC12 cells were purchased from American Type Culture Collection and were maintained in DMEM medium supplemented with penicillin (100 unit/ml), streptomycin (100 μg/ml), 5% fetal bovine serum (FBS), and 10% horse serum at 37 °C in humidified atmosphere with 5% CO2. The detailed procedures were performed referring to the reported literatures. Briefly, PC12 cells of logarithmic growth phase were collected, re-suspended and then seeded at a density of 1 × 10^5 cells per well in 96-well plates and cultured in the DMEM medium with 5% horse serum, 10% FBSfor 24 h.
After incubation with compounds, 20 μl of 5 mg/ml MTT solution was added to each well and cultured at 37 °C for 2 h–4 h. Then, the culture medium was removed, and 150 μl dimethyl sulfoxide(DMSO) was added to each well for 15 min at room temperature. The absorbance of each well was measured at 570 nm using a microplate reader. The protective rates (PR) were calculated according to equation (1).

The test system of the next assay is HEK293 cells. In words: Cytotoxicity on HEK293 cells (MTT). It is filed as cell-based, human. The settings on record: Homo sapiens, HEK293, 100μM, after treatment; read-out: IR (inhibitory rate) HEK293. The procedure:
(§1) Human normal hepatic L02 cells, human embryonic kidney cell line 293 cells (HEK293) and Rattus myoblast cell line H9C2 cells were respectively seeded in 96-well plates at a density of 4 × 10^3 cells per well and cultured in the 1640 or DMEM medium, with the supplement of 10% fetal bovine serum, penicillin (100 unit/ml), streptomycin (100 μg/ml) in a humidified incubator with 5% CO2 for 24 h. […] The cytotoxicities of the compounds were evaluated by MTT method.

In the next assay the test system is L02 cells. In words: Cytotoxicity on L02 cells (MTT). The class given is cell-based, human. As to conditions: Homo sapiens, L02, 100μM, after treatment; read-out: IR (inhibitory rate) L02. On the procedure:
as §1

With `COc1ccc2c(c1)C(CCNC(=O)Nc1ccc(C(F)(F)F)cc1)=NCC2.O=C(O)C(=O)O` [6b-3, 1-(2-(7-Methoxy-3,4-dihydroisoquinolin-1-yl)ethyl)-3-(4-(trifluoromethyl)phenyl)urea oxalate], the “PR (protection rate), Table S1” value in assay [1] is reported as 10.7%. In addition, in assay [1] (1.25 μM), the “PR (protection rate)” value is given as “above 10%”. Besides, the inhibition at 100 µM in the assay on HEK293 cells stood at 23.2%; in the assay on L02 cells it was 35.8%.
As to `COc1ccc2c(c1)C(CCNC(=O)c1ccc(Cl)cc1)=NCC2` [6a-5, 4-Chloro-N-(2-(7-methoxy-3,4-dihydroisoquinolin-1-yl)ethyl) benzamideoxalate], the “PR (protection rate), Table S1” value in assay [1] came to 4.1%. Further, the inhibition at 100 µM in the assay with HEK293 cells was determined as 60%; with L02 cells, 67%.
In the case of `COc1ccc2c(c1)C(CCNC(=O)c1ccc(C)cc1)=NCC2.O=C(O)C(=O)O` [6a-25, N-(2-(7-Methoxy-3,4-dihydroisoquinolin-1-yl)ethyl)-4-methylbenzamide oxalate], the “PR (protection rate), Table S1” value in assay [1] was “-”. The results for the inhibition at 100 µM in the assay with HEK293 cells and with L02 cells were 65.7% and 50.8%, respectively.
For the compound `COc1ccc2c(c1)C(CCNC(=O)Nc1ccc(C#N)c(F)c1)=NCC2.O=C(O)C(=O)O` [6b-7, 1-(4-Cyano-3-fluorophenyl)-3-(2-(7-methoxy-3,4-dihydroisoquinolin-1-yl)ethyl)urea oxalate], the “PR (protection rate), Table S1” value in assay [1] is given as “-”. Besides, the results for the inhibition at 100 µM in the assay on HEK293 cells and in the assay on L02 cells were 27.2% and 24.7%, respectively.
The corresponding values for `COc1ccc2c(c1)C(CCNC(=O)Nc1cccc(Cl)c1)=NCC2.O=C(O)C(=O)O` [6b-2, 1-(3-Chlorophenyl)-3-(2-(7-methoxy-3,4-dihydroisoquinolin-1-yl)ethyl)urea oxalate] are “-”, 37.9% and 38.9%.
The corresponding values for `COc1ccc2c(c1)C(CCNC(=O)Nc1ccc(F)c(Cl)c1)=NCC2.O=C(O)C(=O)O` [6b-14, 1-(3-Chloro-4-fluorophenyl)-3-(2-(7-methoxy-3,4-dihydroisoquinolin-1-yl)ethyl)urea oxalate] are “-”, 22.8% and 47.7%.
As to `COc1ccc2c(c1)C(CCNC(=O)c1ccc(C(F)(F)F)cc1)=NCC2` [6a-8, N-(2-(7-Methoxy-3,4-dihydroisoquinolin-1-yl)ethyl) -4-(trifluoromethyl) benzamideoxalate], the “PR (protection rate), Table S1” value in assay [1] is listed as “-”. For the same compound, the inhibition at 100 µM in the assay with HEK293 cells was 38.4%; in the assay with L02 cells, 60.6%.
In the case of `COc1ccc(C(=O)NCCC2=NCCc3ccc(OC)cc32)c(OC)c1` [6a-15, 2,4-Dimethoxy-N-(2-(7-methoxy-3,4-dihydroisoquinolin-1-yl)ethyl) benzamide oxalate], the “PR (protection rate), Table S1” value in assay [1] came out at 3.7%. In addition, the inhibition at 100 µM came out at 56.1% in the assay on HEK293 cells and 49.5% in the assay on L02 cells.
The corresponding values for `COc1ccc2c(c1)C(CCNC(=O)c1ccc(C(C)C)cc1)=NCC2` [6a-13, 4-Isopropyl-N-(2-(7-methoxy-3,4-dihydroisoquinolin-1-yl)ethyl) benzamide oxalate] are “-”, 57.6% and 43%.
For `COc1ccc2c(c1)C(CCNC(=O)c1ccco1)=NCC2` [6a-9, N-(2-(7-Methoxy-3,4-dihydroisoquinolin-1-yl)ethyl) furan-2-carboxamideoxalate], the “PR (protection rate)” value in assay [1] (5 μM) amounted to 7.9%; in assay [1] ([…]), 14.9%. The inhibition at 100 µM with HEK293 cells worked out at 60.1%; with L02 cells it was 52.6%.
As for `COc1ccc2c(c1)C(CCNC(=O)c1cccc(C)c1)=NCC2.O=C(O)C(=O)O` [6a-22, N-(2-(7-Methoxy-3,4-dihydroisoquinolin-1-yl)ethyl)-3-methylbenzamide oxalate], in assay [1], the “PR (protection rate), Table S1” value is reported as “-”. For the same compound, the inhibition at 100 µM in the assay with HEK293 cells was 22.2%; with L02 cells, 31.8%.
